Assay [1] concerns mouse model of psoriasis. Briefly: Mouse model of psoriasis (Aldar cream, 5% imiquimod): ear thickness and clinical signs. Type of assay: in vivo, female Balb/c mice. The conditions noted are these: Compound 1 30 mg/kg, Neotigason 5 mg/kg, M ± m, n = 20. The procedure: (§1) The induction of psoriasis in mice was carried out according to the standard procedure [European Journal of Pharmacology. 2015. V. 756. P. 43-51]. Aldar cream (5% imiquimod) was applied to female Balb/c mice on the inner side of the right ear once daily by 30 mg/mouse for 7 days (0-6th day). Vaseline was applied to the intact animals. […] Euthanasia was carried out 24 hours later (7th day) after the last application of the Aldar cream. Daily on the 0, 2nd, 3rd, 4th, 5th, 6th day, the thickness of the right ear was measured in the morning before the next application of the Aldar cream and before the euthanasia. After the euthanasia, blood was collected from the heart cavities, serum was isolated. The content of MCP1 was determined in blood serum by an enzyme-linked immunosorbent assay method, using test systems Mouse CCL2 (MCP-1) Uncoated ELISA Kit (Invitrogen).
2011. V. 88(1-2). P. 100-113].

In assay [2] the test system is MCP-1 (CCL2). Kind of assay: MCP-1 level in blood serum of mice on the psoriasis model (ELISA). Type of assay: in vivo, female Balb/c mice. Conditions: day 7, 30 mg/kg intragastric, M ± m, n = 10. The procedure:
as §1
Background: An ELISA detects its analyte on a solid surface through an enzyme-linked reagent.

The subject of assay [3] is non-infectious pneumonia induced by cigarette smoke extract. Kind of assay: Non-infectious pneumonia induced by cigarette smoke extract, lung histology. Type of assay: in vivo, male Balb/c mice. The conditions noted are these: 30 mg/kg intragastric daily day 7-27, 5-point scale; M ± m, n = 12. The procedure: The induction of non-infectious pneumonia in mice was carried out according to the standard procedure [Zhang Yl, Cao J, Chen Y, Chen P, Peng H, Cai S, Luo H, Wu SJ. […] Male Balb/c mice were intraperitoneally administered with cigarette smoke extract (CSE, 0.45 ml/20 mg) at 0, 11th, 15th, 17th, 19th and 22nd day. The CSE was prepared as follows: 5 cigarettes were burnt, using a vacuum pump, the smoke was filtered to remove particles and collected in a vessel containing a phosphate saline buffer. […] Euthanasia was carried out on the 28th day. The right lung lobe was fixed in 10% neutral formalin solution, passed through the alcohols of ascending concentrations to xylene, and embedded in paraffin by standard procedures. Deparaffinated 5-micron shears were stained with hematoxylin-eosin and the histological analysis was carried out.
Each lesion was evaluated according to a 5-point scale: 1 point—the inflammatory infiltrate occupies 0-20% of the area of the histological preparation under study, 2 point—the inflammatory infiltrate occupies 21-40% of the area of the histological preparation under study, 3 points—the inflammatory infiltrate occupies 41-60% of the area of the histological preparation under study, 4 points—the inflammatory infiltrate occupies 61-80% of the area of the histological preparation under study, 5 points—the inflammatory infiltrate occupies 81-100% of the area of the histological preparation under study. Alveolar destruction index (DI) as the percentage of the damaged alveoli relative to the total number of alveoli was also calculated.

Assay [4] has as its system acetic acid-induced abdominal constrictions. Kind of assay: Specific pain reaction by chemical stimulation of peritoneum (abdominal constriction test). Type of assay: in vivo, Balb/c mice. Conditions: 30 mg/kg intragastric, M ± m, n = 12. The procedure: The model of the specific pain reaction by the method of chemical stimulation of peritoneum (“abdominal constriction” test) was carried out according to the standard procedure. To conduct the “abdominal constriction” test, Balb/c mice were intraperitoneally administered with 1% acetic acid in a volume of 10 ml per kg of the animal body weight. The test compound was administered intragastrically, once, 1 or 2 hour(s) before the administration of acetic acid. A quantity of constrictions (convulsive twitching of the abdominal muscles accompanied with stretching hind quarters and arching) was evaluated 15 minutes after the administration of acetic acid.

For `O=C1CCCC(=O)N1CCc1cnc[nH]1` [Compound 1, 1-(2-(1H-imidazol-4-yl)ethyl)piperidine-2,6-dione], the “The gain of the ear thickness at the determined day of study to day 0, Day 2” value in assay [1] (Day 2, intragastric once daily) was 7.8 ± 1.4& %. Moreover, the “The gain of the ear thickness at the determined day of study to day 0, Day 3” value in assay [1] (Day 3, intragastric once daily) was 11.2 ± 1.9& %. The “The gain of the ear thickness at the determined day of study to day 0, Day 4” value in assay [1] (Day 4, intragastric once daily) is recorded as 33.8 ± 1.6& %. In assay [1] (Day 4, score 0-4 (Table 1)), the “Clinical signs of psoriasis, Erythema, Day 4” value is listed as 1.5 ± 0.1*& points; the “Clinical signs of psoriasis, Flakes, Day 4” value was 0.0 ± 0.0& points; the “Clinical signs of psoriasis, Thickening, Day 4” value was 0.9 ± 0.1*& points. The “The gain of the ear thickness at the determined day of study to day 0, Day 5” value in assay [1] (Day 5, intragastric once daily) is 46.9 ± 1.6*& %. Also, the “The gain of the ear thickness at the determined day of study to day 0, Day 6” value in assay [1] (Day 6, intragastric once daily) is 55.8 ± 0.8*& %. In assay [1] (Day 6, score 0-4 (Table 1)), the “Clinical signs of psoriasis, Erythema, Day 6” value was 1.3 ± 0.1*& points; the “Clinical signs of psoriasis, Flakes, Day 6” value is on record as 0.1 ± 0.1& points; the “Clinical signs of psoriasis, Thickening, Day 6” value is on record as 1.3 ± 0.1*& points. Besides, the “MCP-1 level in blood serum” value in assay [2] was 113.7 ± 8.3 & pg/ml. In assay [3], the Interstitial pneumonia is 1.08 ± 0.16& points, the Peribronchitis is on record as 0.13 ± 0.07& points and the Perivasculitis was 1.03 ± 0.11& points. For the same molecule, the “Quantity of constrictions for 15 minutes” value in assay [4] (1 hour before the administration of acetic acid) is listed as 23.8 ± 3.7. In addition, the “Quantity of constrictions for 15 minutes” value in assay [4] (2 hour before the administration of acetic acid) came to 22.7 ± 2.6.

Source of the values: patent US11439631B2, “Use of a glutarimide derivative to treat diseases related to the aberrant activity of cytokines” (“CHEMIMMUNE THERAPEUTICS” LIMITED LIABILITY COMPANY, priority 2017, dated 2022).
